Source: PubChem BioAssay (NCI)
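Compound exposure: 48 hours, 5 concentrations, 96-well plates. GI50 = concentration required for 50% inhibition of growth. The concentration for full growth arrest is given as TGI.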

Assays:
Experiment in all cases: NCI anticancer screen, dose series, 48 h
SF-295 CNS = system: SF-295 CNS
UO-31 renal = system: UO-31 renal
SNB-75 CNS = system: SNB-75 CNS
NCI-H226 lung = system: NCI-H226 lung
EKVX NSCLC = system: EKVX NSCLC
COLO 205 colon = system: COLO 205 colon
SF-268 CNS = system: SF-268 CNS
A549 NSCLC = system: A549 NSCLC
MDA-MB-435 = system: MDA-MB-435
SR leukemia = system: SR leukemia
SK-MEL-28 melanoma = system: SK-MEL-28 melanoma
U251 CNS = system: U251 CNS
SW-620 colon = system: SW-620 colon
HCT-15 colon = system: HCT-15 colon
SK-MEL-5 melanoma = system: SK-MEL-5 melanoma
UACC-257 melanoma = system: UACC-257 melanoma
RXF 393 renal = system: RXF 393 renal
OVCAR-4 ovarian = system: OVCAR-4 ovarian
K-562 leukemia = system: K-562 leukemia
MOLT-4 leukemia = system: MOLT-4 leukemia
HOP-92 NSCLC = system: HOP-92 NSCLC
PC-3 prostate = system: PC-3 prostate
TK-10 renal = system: TK-10 renal
DU-145 prostate = system: DU-145 prostate
SNB-19 CNS = system: SNB-19 CNS
SK-MEL-2 melanoma = system: SK-MEL-2 melanoma
M14 melanoma = system: M14 melanoma
OVCAR-3 ovarian = system: OVCAR-3 ovarian
A498 renal = system: A498 renal
OVCAR-5 ovarian = system: OVCAR-5 ovarian

## O=C1/C=C/[C@@H](O)[C@@H]2C[C@@H](O)C[C@H]2/C=C/CCC[C@H](CCc2ccccc2)O1
SF-295 CNS
  TGI: > 50000 nM
UO-31 renal
  GI50: 31.7 nM
  TGI: 13400 nM
SNB-75 CNS
  GI50: < 12.4 nM
  TGI: 33800 nM
NCI-H226 lung
  GI50: 17.9 nM
  TGI: 74.8 nM
EKVX NSCLC
  GI50: 36.9 nM
  TGI: 14600 nM
COLO 205 colon
  GI50: 19.7 nM
  TGI: 36.9 nM
SF-268 CNS
  GI50: 22.9 nM
  TGI: 7380 nM
A549 NSCLC
  GI50: 40.8 nM
  TGI: > 100000 nM
MDA-MB-435
  GI50: 36.5 nM
  TGI: 14000 nM
SR leukemia
  GI50: 35 nM
SK-MEL-28 melanoma
  GI50: < 10 nM
  TGI: 45.6 nM
U251 CNS
  GI50: 40.6 nM
  TGI: 30100 nM
SW-620 colon
  GI50: 28.7 nM
  TGI: 84.7 nM
HCT-15 colon
  GI50: 34.3 nM
  TGI: 13000 nM
SK-MEL-5 melanoma
  GI50: < 10 nM
  TGI: 16.8 nM
UACC-257 melanoma
  GI50: 37.5 nM
  TGI: 21700 nM
RXF 393 renal
  GI50: < 10 nM
  TGI: < 21.2 nM
OVCAR-4 ovarian
  GI50: 37.3 nM
  TGI: 9480 nM
K-562 leukemia
  GI50: 38.4 nM
  TGI: 22700 nM
MOLT-4 leukemia
  GI50: 36 nM
HOP-92 NSCLC
  GI50: 31 nM
  TGI: 396 nM
PC-3 prostate
  GI50: 44.4 nM
  TGI: 24800 nM
TK-10 renal
  GI50: 34.8 nM
  TGI: 206 nM
DU-145 prostate
  GI50: 49.9 nM
  TGI: > 100000 nM
SNB-19 CNS
  GI50: 51.4 nM
  TGI: > 88100 nM
SK-MEL-2 melanoma
  GI50: 31.8 nM
  TGI: 100 nM
M14 melanoma
  GI50: 26.4 nM
  TGI: 10700 nM
OVCAR-3 ovarian
  GI50: 25.4 nM
  TGI: 61.1 nM
A498 renal
  GI50: < 11.8 nM
  TGI: 40.9 nM
OVCAR-5 ovarian
  GI50: 57.3 nM
  TGI: > 100000 nM
